The values that follow come from patent US8227621B2, “Cyanine dyes and methods of use” (priority 2005, dated 2012).

As usually defined, the IC50 is the concentration that inhibits the measured activity by half.

Type in all cases: biochemical
The target of assay [1] is human recombinant β-secretase (BACE-1) (Homo sapiens, UniProt P56817). Nature of the assay: BACE-1 enzyme inhibition assay. The note with it: 100 nM BACE-1 mixture, 200 nM substrate Structure IV, room temperature 1 hour, Rodbard model.
Description: The BACE-1 assay buffer consists of 50 mM sodium acetate, 10 mM Tris-HCl, 10 mM NaCl, 0.002% Triton X-100, pH adjusted to 4.5. The BACE-1 stop buffer is a 0.8 M sodium phosphate buffer with 0.25 mg/mL BSA (pH 7.8). A characterized BACE-1 inhibitor, β-secretase inhibitor III, is purchased from Calbiochem (CA) (Cat # 565780). […] Two solid-state diode lasers at 680 nm and 780 nm are used as the excitation light sources and their corresponding fluorescence detection is accomplished by two silicon avalanche photodiodes at 710±10 nm and 810±10 nm. […]
The serially diluted solutions containing the BACE-1 peptide inhibitor (final concentrations from 0 to 2500 nM) were mixed with BACE-1 in BACE-1 assay buffer (total BACE-1 mixture final concentration of 100 nM) for 15 minutes followed by the addition of the BACE-1 protease substrate having Structure IV in a final concentration 200 nM. […] The fluorescence intensity was measured on Aerius® infrared imaging system (FIG. 22A).
Assay [2] relates to human recombinant β-secretase (BACE-1). Nature of the assay: BACE-1 enzyme activity assay. The note with it: 200 nM substrate, 400 nM BACE-1 mixture, 100 minutes. The procedure: Purified human recombinant β-secretase (BACE-1) is purchased from Calbiochem (CA). The batch size of 50 μg is supplied as a mixture of the ˜68-70 KDa proenzyme and the ˜65-67 KDa mature enzyme in lyophilized form from sterile-filtered 150 mM NaCl, 50 mM Tris-HCl, pH 7.5. The product is then re-constituted with 100 μL sterile water immediately prior to use.
The BACE-1 assay buffer consists of 50 mM sodium acetate, 10 mM Tris-HCl, 10 mM NaCl, 0.002% Triton X-100, pH adjusted to 4.5. […] A characterized BACE-1 inhibitor, β-secretase inhibitor III, is purchased from Calbiochem (CA) (Cat # 565780). […] Two solid-state diode lasers at 680 nm and 780 nm are used as the excitation light sources and their corresponding fluorescence detection is accomplished by two silicon avalanche photodiodes at 710±10 nm and 810±10 nm. […]
The effect of enzyme concentration on proteolytic activity of the β-secretase (β-site amyloid precursor protein cleaving enzyme 1; BACE-1), is shown in FIGS. 20A-C. […] The enzymatic reaction was stopped by addition of BACE-1 stop buffer and the fluorescence was recorded by Aerius® infrared imaging system. […] Based on the fluorescence standard curve obtained (FIG. 20B), the degree of hydrolysis of BACE-1 peptide was determined as 53%. With increased amount of hydrolysis, higher fluorescence increase is expected.

Another assay deals with T1, HIV-1 protease (Human immunodeficiency virus type 1 group M subtype B, UniProt P04585).
T1 construct: Recombinant HIV-1 protease; purchased BACHEM Biosciences
Nature of the assay: Effect of DMSO and compound interferences on the HIV-1 protease assay. The conditions noted are these: DMSO 0%, 2.5%, 5% and 10%; 2.5-80 nM protease. As to the method: To measure the tolerance of the HIV-1 protease assay to the presence of dimethyl sulfoxide (DMSO), 1 μM of substrate was incubated with 80 nM, 40 nM, 20 nM, 10 nM, 5 nM and 2.5 nM of HIV-1 protease in an assay buffer containing 10%, 5%, 2.5% or 0% DMSO. After incubation at 37° C. for 1.5 hours, the plate was treated with 0.8 M sodium phosphate stop buffer and then scanned on Aerius® System (LI-COR® Biosciences).
The robustness of the protease assay was evaluated against fluorescent, color quenching and light scattering interferences, which are the three major sources of compound interferences in high-throughput fluorescent assay screening. In these experiments, protease activity of the HIV-protease assay of the invention was measured in the presence of various amounts of the interference source and compared to that in the absence of the interference.
Fluorescein, a highly fluorescent compound, was chosen as the model fluorescent compound interference source. A series of fluorescein concentrations were mixed with the HIV-1 peptide substrate in the assay buffer system. These wells were then treated either with the enzyme (positive wells) or without the enzyme (negative wells) and incubated at 37° C. for 1 hour.

The next assay deals with T2, BACE-1 protease enzyme (Homo sapiens, UniProt P56817).
T2 construct: purchased Calbiochem
Nature of the assay: Effect of DMSO concentration on BACE-1 enzyme activity. The note with it: vs absence of DMSO. As to the method:
In this experiment, the BACE-1 protease substrate having Structure IV (200 nM), was incubated with various amounts of BACE-1 protease enzyme (0 to 100 nM) and DMSO concentrations (e.g., 0, 2, 5 or 10%) at room temperature for 1 hour. The enzymatic reactions were then terminated upon the addition of stop buffer and the fluorescence intensities were measured on an Aerius® imaging system. The addition of stop buffer further diluted the DMSO concentrations in the reaction solution from 0, 2, 5, 10% DMSO to 0, 0.5, 1.25, 2.5%, respectively. The change in fluorescence intensity observed for the different DMSO concentrations is a reflection of the interference of DMSO on the BACE-1 enzyme activity. […] DMSO concentration increase to 5% and 10%, the BACE-1 enzyme activity decreased 20% and 35% respectively of the original enzyme activity at the absence of DMSO throughout the enzyme concentration range.

Another assay relates to trypsin. Nature of the assay: NIR-dye labeled casein protease assay with trypsin. The conditions noted are these: 10 μg/mL aprotinin; 20 nM casein conjugate, 5 μg/mL trypsin. The procedure: Casein-NIR Reporter Dye B concentration is 20 nM, trypsin concentration is 5 μg/mL, and aprotinin concentration varies from 10 μg/mL, 5 μg/mL, 1.25 μg/mL, 0.31 μg/mL, 78 ng/mL, 19.5 ng/mL, 4.9 ng/mL, to 1.2 ng/mL. Trypsin was pre-incubated with the inhibitors for 1 hour at 37° C.
Described below is a general method based on the over labeling of casein, with a near-infrared dye, i.e., NIR Reporter Dye B (a NIR-dye labeled casein substrate), for a protease activity microplate assay. The model protease assay uses the labeled casein as the substrate with trypsin as the enzyme, and the fluorescence emission is measured on a LI-COR® Biosciences' Aerius® microplate reader. NIR Reporter Dye B emits at 786 nm, yet it is still a very bright dye (see, FIG. 10).
The proteolytic reactions are carried out in 96-well plates with 50 mM TRIS buffer pH 7.8. […] (The reagent […] and its protein labeling and purification protocols are from LI-COR® Biosciences. Casein, trypsin, and aprotinin are all purchased from Sigma-Aldrich. Protein molecular weight markers labeled with a 700 nm fluorescence dye are from LI-COR® Biosciences.) The reactants are incubated at 37° C. for one hour and then stopped by adding aprotinin to 10 μg/mL final concentration. Then, after being spun, the plates are read on an the LI-COR® microplate reader Aerius®. […]

Square brackets hold non-standard residues; d marks the D form. Peptide text beside a SMILES is read from it. NIR Reporter Dye A = not defined here; Sta = CC(C)C[C@H](N)[C@@H](O)CC(=O)O; Compound 6 = not defined here

T2 sequence (P56817 46-457 limits assumed): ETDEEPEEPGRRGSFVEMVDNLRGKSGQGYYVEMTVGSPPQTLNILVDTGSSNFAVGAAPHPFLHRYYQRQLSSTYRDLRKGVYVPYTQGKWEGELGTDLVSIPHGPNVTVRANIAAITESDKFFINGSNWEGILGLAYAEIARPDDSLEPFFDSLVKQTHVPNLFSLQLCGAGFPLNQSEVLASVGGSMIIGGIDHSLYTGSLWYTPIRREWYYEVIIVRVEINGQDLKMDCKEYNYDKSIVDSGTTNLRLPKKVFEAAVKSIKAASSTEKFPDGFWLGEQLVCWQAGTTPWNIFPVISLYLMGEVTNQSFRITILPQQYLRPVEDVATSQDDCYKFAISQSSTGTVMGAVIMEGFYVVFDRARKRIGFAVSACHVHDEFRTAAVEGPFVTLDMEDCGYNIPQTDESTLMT
Sequence of human recombinant β-secretase (BACE-1) (Homo sapiens, UniProt P56817) (P56817 46-457 limits assumed): as above

`CC(C)C[C@H](NC(=O)[C@H](CC(N)=O)NC(=O)[C@@H](NC(=O)[C@@H](N)CCC(=O)O)C(C)C)[C@@H](O)CC(=O)N[C@H](C(=O)N[C@@H](C)C(=O)N[C@@H](CCC(=O)O)C(=O)N[C@@H](Cc1ccccc1)C(N)=O)C(C)C` [Statine-derived peptide inhibitor, H-Glu-Val-Asn-Statine-Val-Ala-Glu-Phe-NH2] (H-EVN[Sta]VAEF-NH2): the half-inhibitory concentration (IC50) in assay [1] was 57 nM.

With “Structure IV: β-secretase (BACE-1) protease substrate peptide conjugated to NIR Reporter Dye A and Compound 6 (SEQ ID NO:5) ({NIR Reporter Dye A}-SEVNLDAEFRK(Compound 6)RR-OH; reading uncertain)”, in assay [2] (room temperature), the “fluorescence intensity increase over substrate not treated by enzyme” value is given as 12 fold. Besides, the “degree of hydrolysis of BACE-1 peptide” value in assay [2] (from fluorescence standard curve) was found to be 53%.

For `C[S+](C)[O-]` [DMSO, dimethyl sulfoxide], the “effect on cleavage of peptide substrate” value on HIV-1 protease is given as “no significant effect”. Also, the “reduction of BACE-1 protease enzyme activity” value on BACE-1 protease enzyme (DMSO 2%) is reported as not above 10%. Also, the results for the “decrease of BACE-1 enzyme activity” value at BACE-1 protease enzyme (DMSO 5%) and on BACE-1 protease enzyme (DMSO 10%) were 20% and 35%, respectively.

For aprotinin, in the assay on trypsin, the “fluorescence intensity change between total trypsin activity suppression and no inhibition” value is given as “more than 20 fold”.
